Results from ChEMBL document CHEMBL1128878, “Simple compounds, 2-alkyl-2-amino-1,3-propanediols have potent immunosuppressive activity” (Bioorg Med Chem Lett, 1995).

Tests used:
Mus musculus = organism: Mus musculus; test: Inhibition of mouse allogenic mixed leukocyte response (MLR); format: functional
Rattus norvegicus [1] = test: Compound was evaluated in vivo for the immunosuppressive activity on rat skin allograft at ip dose of 30 mg/Kg; format: functional
Rattus norvegicus [2] = test: Compound was evaluated in vivo for the immunosuppressive activity on rat skin allograft at ip dose of 3 mg/Kg; format: functional
Rattus norvegicus [3] = test: Compound was evaluated in vivo for the immunosuppressive activity on rat skin allograft at ip dose of 10 mg/Kg; format: functional
Rattus norvegicus [4] = test: Compound was evaluated in vivo for the immunosuppressive activity on rat skin allograft at ip dose of 1 mg/Kg; format: functional
Rattus norvegicus [5] = test: Compound was evaluated in vivo for the immunosuppressive activity on rat skin allograft at ip dose of 0.3 mg/Kg; format: functional
Rattus norvegicus [6] = test: Compound was evaluated in vivo for the immunosuppressive activity on rat skin allograft at ip dose of 0.03 mg/Kg; format: functional
Rattus norvegicus [7] = test: Compound was evaluated in vivo for the immunosuppressive activity on rat skin allograft at ip dose of 1 mg/Kg; toxic (animals died); format: functional, organism-based
Rattus norvegicus [8] = test: Compound was evaluated in vivo for the immunosuppressive activity on rat skin allograft at ip dose of 0.1 mg/Kg; format: functional
Rattus norvegicus [9] = test: Compound was evaluated in vivo for the immunosuppressive activity on rat skin allograft at ip dose of 10 mg/Kg; toxic (animals died); format: ADME, organism-based

Row | Structure (SMILES) | IC50 (Mus musculus) | also measured
1 | CCCCCCCCCCCCCCC(N)(CO)CO | 5.9 nM | 
2 | C/C=C/C[C@@H](C)[C@@H](O)[C@H]1C(=O)N[C@@H](CC)C(=O)N(C)CC(=O)N(C)[C@@H](CC(C)C)C(=O)N[C@@H](C(C)C)C(=O)N(C)[C@@H](CC(C)C)C(=O)N[C@@H](C)C(=O)N[C@H](C)C(=O)N(C)[C@@H](CC(C)C)C(=O)N(C)[C@@H](CC(C)C)C(=O)N(C)[C@@H](C(C)C)C(=O)N1C [CYCLOSPORINE] |  | MST (Rattus norvegicus [1]): 19.2 days; MST (Rattus norvegicus [2]): 10.8 days; MST (Rattus norvegicus [3]): 15.2 days; MST (Rattus norvegicus [4]): 7.3 days
3 | CCCCCCCCCCCCCCCC[C@@H](O)[C@H](O)C(N)(CO)CO | 320 nM | 
4 | CCCCCCCCCCCCC/C=C/C[C@@H](O)[C@H](O)C(N)(CO)CO | 56 nM | 
5 | CCCCCCCCCCCCCC(N)(CO)CO | 12 nM | 
6 | CCCCCCCCCCCCC(N)(CO)CO | 270 nM | 
7 | CCCCCCCCC(N)(CO)CO | 3700 nM | 
8 | CCCCCCC(=O)CCCCCC/C=C/C[C@@H](O)[C@H](O)[C@@](N)(CO)C(=O)O [MYRIOCIN] | 3 nM | MST (Rattus norvegicus [5]): 11.2 days; MST (Rattus norvegicus [6]): 7.8 days; MST (Rattus norvegicus [7]): Toxic (animals died); MST (Rattus norvegicus [8]): 9.2 days
9 | CCCCCCC(O)CCCCCCCCC[C@@H](O)[C@H](O)C(N)(CO)CO (some centres undefined) | 1630 nM | 
10 | CCCCCCCCCCCCCCCCCCCCCCC(N)(CO)CO | 1600 nM | 
11 | CCCCCCCCCCCCCCCCCCCCC(N)(CO)CO | 190 nM | 
12 | CCCCCCCCCCC(N)(CO)CO | 440 nM | 
13 | CCCCCCCCCCCCCCCC(N)(CO)CO | 2.9 nM | MST (Rattus norvegicus [2]): 57.8 days; MST (Rattus norvegicus [5]): 33.5 days; MST (Rattus norvegicus [6]): 10.8 days; MST (Rattus norvegicus [4]): 45.3 days; MST (Rattus norvegicus [9]): Toxic (animals died); MST (Rattus norvegicus [8]): 14 days
14 | CCCCCCCCCCCCCCCCCCC(N)C(=O)O (centres undefined) | 130 nM | 
15 | CCCCCCCCCCCCCCCCC(N)(CO)CO | 10 nM | 
16 | CCCCCCC(O)CCCCCC/C=C/C[C@@H](O)[C@H](O)C(N)(CO)CO (some centres undefined) | 4.7 nM | 
